Marks after values point to notes of the source that are not given here.
How the values were obtained:
Assay type in all cases: in vivo
[1] = tested on: Botrytis cinerea (the causal agent of tomato Botrytis); experiment: Test C: tomato Botrytis, preventive spray on tomato seedlings, visual disease rating; details: for Test C rating (100 = 100% disease control, 0 = no disease control relative to the controls): tomato Botrytis, preventive spray on tomato seedlings
In short: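 Preventive test: B. cinerea spore inoculation one day after tomato seedlings were sprayed to run-off with compound suspended in 50/50 acetone–water plus 250 ppm surfactant. Plants held 48 h at 20° C in saturated air, then 3 days at 24° C; visual ratings scored 100 (full control) to 0 versus controls; some entries used 40 ppm.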

[2] = tested on: Blumeria graminis f. sp. tritici (also known as Erysiphe graminis f. sp. tritici, the causal agent of wheat powdery mildew); experiment: Test D: wheat powdery mildew, preventive spray on wheat seedlings, visual disease rating; details: for Test D rating (100 = 100% disease control, 0 = no disease control relative to the controls): wheat powdery mildew, preventive spray on wheat seedlings
In short: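 Preventive test: seedlings sprayed to run-off and inoculated with powdery mildew spores one day later. Suspensions were made in 50/50 acetone/water with 250 ppm Trem 014 surfactant (200 ppm equals 800 g/ha). Visual ratings after 8 days at 20 °C give percent disease control versus controls.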

[3] = tested on: Septoria tritici (the causal agent of wheat leaf blotch); experiment: Test B: wheat leaf blotch, preventive spray on wheat seedlings, visual disease rating; details: for Test B rating (100 = 100% disease control, 0 = no disease control relative to the controls): wheat leaf blotch, preventive spray on wheat seedlings
In short: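 Preventive test: Septoria tritici spores applied one day after run-off spraying of seedlings (200 ppm equals 800 g/ha; some tests 40 ppm). After 48 h at 24 °C saturated atmosphere and 19 days at 20 °C, disease scored visually as % control relative to untreated plants.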

[4] = tested on: Puccinia recondite f. sp. tritici (the causal agent of wheat leaf rust); experiment: Test A: wheat leaf rust, preventive spray on wheat seedlings, visual disease rating; details: for Test A rating (100 = 100% disease control, 0 = no disease control relative to the controls): wheat leaf rust, preventive spray on wheat seedlings
In short: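 This was a preventive test: Puccinia recondite f. sp. tritici inoculum was applied one day after compound spray to run-off. Test suspensions were made in 50/50 acetone/water with 250 ppm surfactant, at 200 ppm (800 g/ha equivalent) or 40 ppm. Visual ratings of % disease control relative to controls were made after 24 h of saturated humidity and 7 growth-chamber days, all at 20° C.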

[5] = asterisk: 40 ppm test suspension
[6] = no asterisk (standard test suspension concentration, not 40 ppm)
[7] = asterisk: 40 ppm test suspension, 100 = 100% disease control, 0 = no control

Q: For Cc1ncc(C(O)c2ccc(F)cc2F)n1-c1ccc(F)cc1Br (stereo not drawn) [compound 321], which “Test C rating (100 = 100% disease control, 0 = no disease control relative to the controls)” value [1, 5] is on record?
A: Its value is 0* %.

Q: What about the “Test D rating (100 = 100% disease control, 0 = no disease control relative to the controls)” value [2, 5] of the same compound?
A: Its value is 0* %.

Q: What about the “Test B rating (100 = 100% disease control, 0 = no disease control relative to the controls)” value [3, 5] of the same compound?
A: The value was 0* %.

Q: What about the “Test A rating (100 = 100% disease control, 0 = no disease control relative to the controls)” value [4, 5] of the same compound?
A: The value was 0* %.

Q: With OC(c1ccc(F)cc1F)c1c(Br)nc(Cl)n1-c1c(F)cc(F)cc1Cl (stereo not drawn) [compound 108] as the compound, how does the “Test C rating (100 = 100% disease control, 0 = no disease control relative to the controls)” value [1, 5] read?
A: Its value is 67* %.

Q: And the “Test D rating (100 = 100% disease control, 0 = no disease control relative to the controls)” value [2, 5]?
A: The value was 99* %.

Q: What about the “Test B rating (100 = 100% disease control, 0 = no disease control relative to the controls)” value [3, 5] of the same compound?
A: The value was 100* %.

Q: What about the “Test A rating (100 = 100% disease control, 0 = no disease control relative to the controls)” value [4, 5] of the same compound?
A: Its value is 100* %.

Q: How did the “Test C rating (100 = 100% disease control, 0 = no disease control relative to the controls)” value [1, 5] turn out when COc1cc(F)c(C(O)c2c(Cl)nc(C)n2-c2ccc(F)cc2Cl)c(F)c1 (stereo not drawn) [compound 153] was run?
A: The value was 99* %.

Q: And the “Test D rating (100 = 100% disease control, 0 = no disease control relative to the controls)” value [2, 6]?
A: The value was 94%.

Q: What about the “Test B rating (100 = 100% disease control, 0 = no disease control relative to the controls)” value [3, 6] of the same compound?
A: Its value is 100%.

Q: And the “Test A rating (100 = 100% disease control, 0 = no disease control relative to the controls)” value [4, 6]?
A: The value was 100%.

Q: What does the source list for OC(c1ccc(F)cc1F)c1c(Br)nc(Br)n1-c1ccc(F)cc1Cl (stereo not drawn) [compound 65]?
A: Test C rating (100 = 100% disease control, 0 = no disease control relative to the controls) [1, 5]: 100* %; Test D rating (100 = 100% disease control, 0 = no disease control relative to the controls) [2, 5]: 64* %; Test B rating (100 = 100% disease control, 0 = no disease control relative to the controls) [3, 5]: 100* %; Test A rating (100 = 100% disease control, 0 = no disease control relative to the controls) [4, 5]: 100* %

Q: Cc1cc(F)ccc1C(O)c1c(C)nc(Cl)n1-c1c(F)cccc1Br (stereo not drawn) [compound 209] was tested. Which “Test C rating (100 = 100% disease control, 0 = no disease control relative to the controls)” value [1, 5] did it give?
A: Its value is 100* %.

Q: What about the “Test D rating (100 = 100% disease control, 0 = no disease control relative to the controls)” value [2, 5] of the same compound?
A: The value was 42* %.

Q: And the “Test B rating (100 = 100% disease control, 0 = no disease control relative to the controls)” value [3, 5]?
A: The value was 100* %.

Q: And the “Test A rating (100 = 100% disease control, 0 = no disease control relative to the controls)” value [4, 5]?
A: The value was 99* %.

Q: What does the source list for OC(c1ccc(F)cc1F)c1c(Cl)nc(Cl)n1-c1ccc(F)cc1Cl (single isomer, unassigned) [compound 19]?
A: Test C rating (100 = 100% disease control, 0 = no disease control relative to the controls) [1, 6]: 100%; Test D rating (100 = 100% disease control, 0 = no disease control relative to the controls) [2, 6]: 98%; Test B rating (100 = 100% disease control, 0 = no disease control relative to the controls) [3, 6]: 100%; Test A rating (100 = 100% disease control, 0 = no disease control relative to the controls) [4, 6]: 100%

Q: What does the source list for COc1ccc(C(O)c2c(Cl)nc(C)n2-c2c(F)cc(F)cc2Cl)c(Cl)c1 (stereo not drawn) [compound 350]?
A: Test C rating (100 = 100% disease control, 0 = no disease control relative to the controls) [1, 5]: 98* %; Test D rating (100 = 100% disease control, 0 = no disease control relative to the controls) [2, 5]: 98* %; Test B rating (100 = 100% disease control, 0 = no disease control relative to the controls) [3, 5]: 100* %; Test A rating (100 = 100% disease control, 0 = no disease control relative to the controls) [4, 5]: 100* %

Q: What does the source list for Cc1nc(Br)c(C(O)c2ccc(F)cc2Cl)n1-c1c(F)cc(F)cc1F (stereo not drawn) [Compound 168, 4-bromo-α-(2-chloro-4-fluorophenyl)-2-methyl-1-(2,4,6-trifluorophenyl)-1H-imidazole-5-methanol]?
A: Test C rating (100 = 100% disease control, 0 = no disease control relative to the controls) [1, 5]: 99* %; Test D rating (100 = 100% disease control, 0 = no disease control relative to the controls) [2, 5]: 56* %; Test B rating (100 = 100% disease control, 0 = no disease control relative to the controls) [3, 5]: 100* %; Test A rating (100 = 100% disease control, 0 = no disease control relative to the controls) [4, 5]: 100* %

Q: What does the source list for Cc1nc(Br)c(C(O)c2c(Cl)cccc2Cl)n1-c1c(F)cccc1F (stereo not drawn) [compound 194]?
A: Test C rating (100 = 100% disease control, 0 = no disease control relative to the controls) [1, 5]: 77* %; Test D rating (100 = 100% disease control, 0 = no disease control relative to the controls) [2, 5]: 0* %; Test B rating (100 = 100% disease control, 0 = no disease control relative to the controls) [3, 5]: 100* %; Test A rating (100 = 100% disease control, 0 = no disease control relative to the controls) [4, 5]: 99* %

Q: Which “Test C rating (100 = 100% disease control, 0 = no disease control relative to the controls)” value [1, 5] does the source give for COc1ccc(C(O)c2c(Cl)nc(C)n2-c2c(F)cc(F)cc2Cl)c(F)c1 (stereo not drawn) [compound 345] here?
A: Its value is 99* %.

Q: And the “Test D rating (100 = 100% disease control, 0 = no disease control relative to the controls)” value [2, 5]?
A: Its value is 35* %.

Q: And the “Test B rating (100 = 100% disease control, 0 = no disease control relative to the controls)” value [3, 5]?
A: The value was 100* %.

Q: What about the “Test A rating (100 = 100% disease control, 0 = no disease control relative to the controls)” value [4, 5] of the same compound?
A: Its value is 100* %.

Q: With Cc1nc(Br)c(C(O)c2ccc(F)cc2F)n1-c1c(F)cccc1Cl (stereo not drawn) [compound 400] as the compound, how does the “Test C rating (% disease control, tomato Botrytis)” value [1, 7] read?
A: The value was 100* %.

Q: What about the “Test D rating (% disease control, wheat powdery mildew)” value [2, 7] of the same compound?
A: The value was 100* %.

Q: And the “Test B rating (% disease control, wheat leaf blotch)” value [3, 7]?
A: The value was 100* %.

Q: What about the “Test A rating (% disease control, wheat leaf rust)” value [4, 7] of the same compound?
A: Its value is 100* %.

Q: Which results are given for Cc1nc(Cl)c(C(O)c2ccc(F)cc2F)n1-c1c(F)cc(F)cc1Br (stereo not drawn) [compound 92]?
A: Test C rating (100 = 100% disease control, 0 = no disease control relative to the controls) [1, 6]: 99%; Test D rating (100 = 100% disease control, 0 = no disease control relative to the controls) [2, 6]: 95%; Test B rating (100 = 100% disease control, 0 = no disease control relative to the controls) [3, 6]: 100%; Test A rating (100 = 100% disease control, 0 = no disease control relative to the controls) [4, 6]: 100%
